Test systems include Pseudomonas putida; Pseudomonas fluorescens; Fusarium solani; Ramulariopsis gossypii; Trichoderma asperellum; Fusarium oxysporum; Escherichia coli W3110; Enterococcus faecium; Escherichia coli NDM; Staphylococcus aureus; Staphylococcus aureus MR; Enterococcus faecalis A4.
What all share (test): ≥ marks a high value that may be exact or a test limit, other limits are often not marked, values filed in µg/mL are converted to µM
Assay [1] concerns Staphylococcus epidermidis ATCC 12228.
The test system of assay [2] is Proteus vulgaris KCTC 2433.
Assay [3] deals with Staphylococcus aureus ATCC 29213.
For assay [4], the system named is Staphylococcus aureus 3518.
The test system of assay [5] is Pseudomonas aeruginosa ATCC 15692.
In assay [6] the test system is Escherichia coli ATCC 25922.
Assay [7] has as its system Pseudomonas aeruginosa 4007.
Assay [8] deals with Pseudomonas aeruginosa 3543.
Assay [9] concerns Bacillus subtilis KCTC 1998.
In assay [10] the test system is Listeria monocytogenes ATCC 3710.
Assay [11] has as its system Escherichia coli CCARM 1238.
Assay [12] deals with Salmonella enterica AB2010185.
Assay [13] relates to Micrococcus luteus AB2010179.
In assay [14] the test system is Klebsiella oxytoca AB2010143.
In assay [15] the test system is Staphylococcus aureus AB94004.
The test system of assay [16] is Enterobacter cloacae AB2010162.
Assay [17] has as its system Escherichia coli DH5alpha.
In assay [18] the test system is Bacillus magaterium AB90008.
The test system of assay [19] is Pseudomonas aeruginosa ATCC 27853.
In assay [20] the test system is Fusarium oxysporum f.sp. vasinfectum.
The test system of assay [21] is Pectobacterium carotovorum.
Assay [22] concerns Cryptococcus neoformans ATCC 28957.
Assay [23] relates to Candida albicans ATCC 90028.
The test system of assay [24] is Xanthomonas campestris pv. citri.
For assay [25], the system named is Staphylococcus aureus ATCC 25923.
In assay [26] the test system is Pseudomonas syringae pv. tabaci.
Assay [27] has as its system Bacillus subtilis ATCC 23857.
Assay [28] has as its system Bacillus cereus ATCC 14579.
In assay [29] the test system is Bacillus subtilis ATCC 6051.
Assay [30] deals with Enterococcus faecium 5F-10.
Assay [31] relates to Pseudomonas aeruginosa PA14.
Assay [32] deals with Enterococcus faecalis 1F-1.
Assay [33] concerns Staphylococcus aureus 215.
Assay [34] relates to Acinetobacter baumannii AB5075.
Assay [35] has as its system Bacillus amyloliquefaciens ATCC 23842.
For assay [36], the system named is Bacillus licheniformis ATCC 14580.

Values after ≈ are worked out from the molar mass of the structure shown. Values joined by “and” are separate entries in the source; they are usually repeats but may differ in a detail not shown here. Equal values may be shown once.

For orientation: MIC means the lowest concentration found to suppress growth. Read a high MIC as a less susceptible organism.

Regarding `CC[C@H](C)[C@H](NC(=O)[C@H](Cc1ccccc1)NC(=O)[C@H](CCCN=C(N)N)NC(=O)[C@H](CC(C)C)NC(=O)[C@@H](N)Cc1ccccc1)C(=O)NCC(=O)N[C@@H](CO)C(=O)N[C@H](C(=O)N[C@@H](CCCCN)C(=O)N[C@@H](Cc1cnc[nH]1)C(=O)NCC(=O)N[C@@H](CCCCN)C(=O)NCC(=O)N[C@@H](Cc1cnc[nH]1)C(=O)N[C@@H](CC(C)C)C(=O)N[C@H](C(=O)N[C@@H](Cc1cnc[nH]1)C(=O)N[C@@H](Cc1cnc[nH]1)C(=O)N[C@H](C(=O)NCC(=O)N[C@H](C(=O)N[C@@H](C)C(=O)N[C@@H](CC(C)C)C(N)=O)C(C)C)[C@@H](C)CC)C(C)C)C(C)C` [FLRFIGSVKHGKGHLVHHIGVAL], the MIC in assay [1] was 4 µM and 8 µM; in [2], 4 µM and 8 µM; in [3] it was 8 µM (≈ 20.2 µg/mL); in assay [4], 8 µM (≈ 20.2 µg/mL); in [5], ≥ 32 µM; in assay [6], 2 µM and 4 µM. For the same compound, the MIC in assay [7] was determined as 2 µM (≈ 5.04 µg/mL); in [8], 4 µM (≈ 10.1 µg/mL); in [9], 4 µM (≈ 10.1 µg/mL); in assay [10] it was 4 µM (≈ 10.1 µg/mL); in assay [11], 2 µM (≈ 5.04 µg/mL).
As to `CC[C@H](C)[C@H](NC(=O)[C@H](CC(C)C)NC(=O)[C@H](CCCCN)NC(=O)[C@H](CC(C)C)NC(=O)[C@H](C)NC(=O)CNC(=O)[C@H](CCCCN)NC(=O)[C@H](C)NC(=O)[C@H](CC(C)C)NC(=O)[C@H](C)NC(=O)CNC(=O)[C@H](Cc1c[nH]c2ccccc12)NC(=O)[C@@H](N)Cc1ccccc1)C(=O)N1CCC[C@H]1C(=O)N[C@@H](CO)C(=O)N[C@@H](CC(C)C)C(=O)N[C@H](C(=O)N[C@@H](CO)C(=O)N[C@@H](CO)C(=O)N[C@@H](Cc1ccccc1)C(=O)N[C@H](C(N)=O)[C@@H](C)O)C(C)C` [FWGALAKGALKLIPSLVSSFT], the MIC in the assay with Pseudomonas putida is ≥ 35 µM; in [12] it was ≥ 40 µM; in [13], 1.5 µM (≈ 3.31 µg/mL); in assay [14], ≥ 45 µM; against Pseudomonas fluorescens, ≥ 50.5 µM; in assay [15], 6.9 µM (≈ 15.2 µg/mL). For the same compound, the MIC is ≥ 45 µM in [16], ≥ 40 µM in [17] and 1.5 µM (≈ 3.31 µg/mL) in assay [18].
In the case of `CSCC[C@H](NC(=O)[C@H](Cc1ccccc1)NC(=O)CNC(=O)[C@H](Cc1cnc[nH]1)NC(=O)[C@H](CC(C)C)NC(=O)[C@H](CO)NC(=O)CN)C(=O)N[C@@H](Cc1ccc(O)cc1)C(=O)N[C@@H](CCCCN)C(=O)N[C@@H](Cc1ccc(O)cc1)C(=O)N[C@@H](CC(C)C)C(=O)N[C@@H](CCCCN)C(=O)N[C@@H](CC(N)=O)C(=O)N[C@@H](CCSC)C(=O)N[C@H](C(=O)N[C@@H](CC(C)C)C(=O)N[C@@H](CC(N)=O)C(=O)N[C@@H](CC(C)C)C(=O)N[C@@H](Cc1ccccc1)C(N)=O)C(C)C` [GSLHGFMYKYLKNMVLNLF], the MIC in [19] is 26.7 µM (≈ 60.7 µg/mL); in the assay on Fusarium solani it was ≥ 32 µM; in the assay with Ramulariopsis gossypii, 4 µM (≈ 9.1 µg/mL); in assay [20] it was 16 µM (≈ 36.4 µg/mL); in assay [21], ≥ 128 µM; in assay [22], 10.7 µM (≈ 24.3 µg/mL). Besides, the MIC in [23] was 4 µM (≈ 9.1 µg/mL); against Trichoderma asperellum it was 6.67 µM (≈ 15.2 µg/mL); in assay [24], ≥ 64 µM; with Fusarium oxysporum it was 16 µM (≈ 36.4 µg/mL); in assay [25] it was 13.3 µM (≈ 30.3 µg/mL); in assay [26], 16 µM (≈ 36.4 µg/mL). Further, the MIC in assay [6] is 32 µM (≈ 72.8 µg/mL); in assay [27], 16 µM (≈ 36.4 µg/mL); in assay [28], ≥ 64 µM.
As to `CC[C@H](C)[C@H](NC(=O)[C@H](C)NC(=O)[C@@H](NC(=O)[C@@H]1CCCN1C(=O)[C@H](CCCN=C(N)N)NC(=O)[C@H](CCCCN)NC(=O)[C@H](CO)NC(=O)[C@@H](NC(=O)[C@H](CC(C)C)NC(=O)[C@@H](NC(=O)[C@H](CCCN=C(N)N)NC(=O)[C@@H](NC(=O)[C@H](CC(C)C)NC(=O)[C@@H](N)CCCN=C(N)N)C(C)C)[C@@H](C)CC)C(C)C)C(C)C)C(=O)N[C@@H](CCCCN)C(=O)N1CCC[C@H]1C(=O)N[C@@H](Cc1ccc(O)cc1)C(=O)N[C@@H](Cc1ccccc1)C(=O)N[C@@H](CCCN=C(N)N)C(=O)N[C@@H](CC(C)C)C(=O)O` [RLVRILVSKRPVAIKPYFRL], the MIC turned out to be 26.4 µM (≈ 64 µg/mL) in assay [29]; 4 µM (≈ 9.7 µg/mL) against Escherichia coli W3110; 1.65 µM (≈ 4 µg/mL) with Enterococcus faecium; 0.825 µM (≈ 2 µg/mL) in assay [30]; 8 µM (≈ 19.4 µg/mL) against Escherichia coli NDM; 8 µM (≈ 19.4 µg/mL) in [31]. In addition, the MIC in assay [32] was 1.65 µM (≈ 4 µg/mL); in assay [3], > 26.4 µM; in assay [33], 26.4 µM (≈ 64 µg/mL); with Staphylococcus aureus, 13.2 µM (≈ 32 µg/mL); in the assay with Staphylococcus aureus MR it was 26.4 µM (≈ 64 µg/mL); in [34], 2 µM (≈ 4.85 µg/mL). The MIC in assay [35] came out at 26.4 µM (≈ 64 µg/mL); in assay [28], 26.4 µM (≈ 64 µg/mL); against Enterococcus faecalis A4 it was 1.65 µM (≈ 4 µg/mL); in assay [36], 26.4 µM (≈ 64 µg/mL).
